Test results taken from patent US10479780B2, “Aminopyrazole derivatives” (Chugai Seiyaku Kabushiki Kaisha, priority 2015, dated 2019).

Key:
Format in all cases: biochemical
human Yes1 enzyme = target: T1, human Yes1 enzyme (Homo sapiens, UniProt P07947); assay: Yes1 enzyme inhibitory activity (time-resolved fluorometry, biotinylated peptide phosphorylation); conditions: biotinylated peptide phosphorylation, read-out: YES_IC50
T1 construct: made in house
Procedure, shortened: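 Inhibition was expressed against a compound-free control to give IC50, using TR-FRET read-out (Eu-cryptate anti-pTyr antibody, streptavidin-XL665).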

human Src enzyme = target: T2, human Src enzyme (Homo sapiens, UniProt P12931); assay: Src enzyme inhibitory activity (time-resolved fluorometry, biotinylated peptide phosphorylation); conditions: biotinylated peptide phosphorylation, read-out: SRC_IC50
T2 construct: purchased Carna Biosciences, Inc. 08-173
T2 sequence (P12931 whole entry): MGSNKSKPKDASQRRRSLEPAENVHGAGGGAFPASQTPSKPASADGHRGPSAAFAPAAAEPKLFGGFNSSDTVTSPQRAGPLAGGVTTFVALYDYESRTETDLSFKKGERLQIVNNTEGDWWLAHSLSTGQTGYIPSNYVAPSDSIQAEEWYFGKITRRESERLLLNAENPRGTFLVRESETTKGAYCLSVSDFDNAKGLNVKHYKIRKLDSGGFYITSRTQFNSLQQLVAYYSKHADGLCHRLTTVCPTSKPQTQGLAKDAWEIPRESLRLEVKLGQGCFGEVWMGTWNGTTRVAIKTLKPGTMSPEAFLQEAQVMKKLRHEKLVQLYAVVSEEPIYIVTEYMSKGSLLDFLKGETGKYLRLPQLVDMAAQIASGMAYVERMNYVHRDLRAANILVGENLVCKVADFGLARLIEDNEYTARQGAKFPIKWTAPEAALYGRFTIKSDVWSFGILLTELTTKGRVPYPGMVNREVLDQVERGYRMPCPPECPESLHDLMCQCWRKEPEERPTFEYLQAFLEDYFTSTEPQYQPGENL
Procedure, shortened: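 Compounds were tested for blocking tyrosine phosphorylation of a biotinylated peptide substrate by recombinant human Src. Phosphorylated product was quantified by time-resolved fluorometry using europium cryptate and XL665 conjugates, and IC50 was calculated against the compound-free control.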

human Lck enzyme = target: T3, human Lck enzyme (Homo sapiens, UniProt P06239); assay: Lck enzyme inhibitory activity (time-resolved fluorometry, biotinylated peptide phosphorylation); conditions: biotinylated peptide phosphorylation, read-out: LCK_IC50
T3 construct: purchased Carna Biosciences, Inc. 08-170
T3 sequence (P06239 whole entry): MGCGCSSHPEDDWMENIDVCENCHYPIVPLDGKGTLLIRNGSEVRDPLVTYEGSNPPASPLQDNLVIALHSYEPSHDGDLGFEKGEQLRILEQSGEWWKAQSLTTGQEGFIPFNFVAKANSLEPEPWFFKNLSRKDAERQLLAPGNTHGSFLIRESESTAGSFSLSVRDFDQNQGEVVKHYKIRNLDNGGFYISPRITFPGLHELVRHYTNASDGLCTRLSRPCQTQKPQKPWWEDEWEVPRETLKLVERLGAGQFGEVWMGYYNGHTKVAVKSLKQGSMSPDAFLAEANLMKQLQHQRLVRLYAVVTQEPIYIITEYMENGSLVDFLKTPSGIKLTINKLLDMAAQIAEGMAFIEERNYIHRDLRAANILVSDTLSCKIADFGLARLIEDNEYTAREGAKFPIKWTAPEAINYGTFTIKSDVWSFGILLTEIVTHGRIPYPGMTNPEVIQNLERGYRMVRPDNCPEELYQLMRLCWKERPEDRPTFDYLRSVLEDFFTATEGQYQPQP
Procedure, shortened: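 Readout pairs a europium cryptate-labelled anti-phosphotyrosine antibody with XL665-streptavidin, measured by time-resolved fluorescence. IC50 derived from percent inhibition against untreated controls.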

T1 sequence (P07947 whole entry): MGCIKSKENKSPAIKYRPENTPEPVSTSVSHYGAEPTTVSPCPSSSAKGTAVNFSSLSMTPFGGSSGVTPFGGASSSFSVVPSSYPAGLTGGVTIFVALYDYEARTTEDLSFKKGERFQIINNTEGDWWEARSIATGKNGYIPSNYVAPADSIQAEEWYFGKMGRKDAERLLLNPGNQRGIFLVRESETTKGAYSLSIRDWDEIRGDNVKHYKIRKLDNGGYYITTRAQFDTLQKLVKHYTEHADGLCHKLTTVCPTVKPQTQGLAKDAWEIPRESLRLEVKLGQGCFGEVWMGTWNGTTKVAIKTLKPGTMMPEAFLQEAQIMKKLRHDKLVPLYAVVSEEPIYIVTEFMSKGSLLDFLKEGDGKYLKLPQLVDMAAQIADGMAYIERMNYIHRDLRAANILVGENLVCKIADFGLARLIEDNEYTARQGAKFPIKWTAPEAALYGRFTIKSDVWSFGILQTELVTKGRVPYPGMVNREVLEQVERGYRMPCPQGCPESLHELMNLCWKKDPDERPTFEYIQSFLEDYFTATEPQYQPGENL

Row | Structure (SMILES) | IC50 (human Yes1 enzyme) [nM] | IC50 (human Src enzyme) [nM] | IC50 (human Lck enzyme) [nM]
1 | Cc1cc(Oc2c(F)cccc2F)ncc1-n1ncc(C(=O)c2cc3cc(OCC(F)F)c(C4CCN(S(=O)(=O)C5CC5)CC4)cc3[nH]2)c1N [Example 4-17-024, [5-amino-1-[6-(2,6-difluorophenoxy)-4-methylpyridin-3-yl]pyrazol-4-yl]-[6-(1-cyclopropylsulfonylpiperidin-4-yl)-5-(2,2-difluoroethoxy)-1H-indol-2-yl]methanone] | 11 | 40 | 25
2 | Cc1cc(Oc2c(F)cccc2F)ncc1-n1ncc(C(=O)c2cc3cc(OCC(F)F)c(C4CCN(C(=O)CN)CC4)cc3[nH]2)c1N [Example 4-18-001, 2-amino-1-{4-{2-{5-amino-1-[6-(2,6-difluorophenoxy)-4-methylpyridin-3-yl]pyrazole-4-carbonyl}-5-(2,2-difluoroethoxy)-1H-indol-6-yl}piperidin-1-yl}ethanone] | 3.2 | 24 | 8.2
3 | Cc1cc(Oc2c(F)cccc2F)ncc1-n1ncc(C(=O)c2cc3cc(OC(F)F)c(C4CCN(C(=O)CN)CC4)cc3[nH]2)c1N [Example 4-18-003, 2-amino-1-[4-[2-[5-amino-1-[6-(2,6-difluorophenoxy)-4-methylpyridin-3-yl]pyrazole-4-carbonyl]-5-(difluoromethoxy)-1H-indol-6-yl]piperidin-1-yl]ethanone] | 4.8 | 23 | 11
4 | COc1cc2cc(C(=O)c3cnn(-c4cnc(Oc5c(F)cccc5F)cc4C)c3N)[nH]c2cc1NS(=O)(=O)CCCF [Example 4-19-001, N-(2-(5-amino-1-(6-(2,6-difluorophenoxy)-4-methylpyridin-3-yl)-1H-pyrazole-4-carbonyl)-5-methoxy-1H-indol-6-yl)-3-fluoropropane-1-sulfonamide] | 0.83 | 28 | 3.9
5 | Cc1cc(-n2ncc(C(=O)c3cc4cc(F)c(NS(N)(=O)=O)cc4[nH]3)c2N)ccc1Oc1ccccc1F [Example 4-20-003, 2-[5-amino-1-[4-(2-fluorophenoxy)-3-methylphenyl]pyrazole-4-carbonyl]-5-fluoro-6-(sulfamoylamino)-1H-indole] | 1.4 | 15 | 2.1
6 | Cc1cc(Oc2c(F)cccc2F)ncc1-n1ncc(C(=O)c2cc3cc(OCC(F)F)c(N4CCCC4=O)cc3[nH]2)c1N [Example 4-21-001, 1-{2-{5-amino-1-[6-(2,6-difluorophenoxy)-4-methylpyridin-3-yl]pyrazole-4-carbonyl}-5-(2,2-difluoroethoxy)-1H-indol-6-yl}pyrrolidin-2-one] | 3.7 | 13 | 6.2
7 | Cc1cc(Oc2ccccc2F)cc(F)c1-n1ncc(C(=O)c2cc3cc(OCC(F)F)c(N4CCCC4=O)cc3[nH]2)c1N [Example 4-21-004, 1-[2-[5-amino-1-[2-fluoro-4-(2-fluorophenoxy)-6-methylphenyl]pyrazole-4-carbonyl]-5-(2,2-difluoroethoxy)-1H-indol-6-yl]pyrrolidin-2-one] | 1 | 9.2 | 3
8 | Cc1cc(Oc2c(F)cccc2F)ncc1-n1ncc(C(=O)c2cc3cc(OCC(F)F)c(N4CCOC4=O)cc3[nH]2)c1N [Example 4-21-005, 3-[2-[5-amino-1-[6-(2,6-difluorophenoxy)-4-methylpyridin-3-yl]pyrazole-4-carbonyl]-5-(2,2-difluoroethoxy)-1H-indol-6-yl]-1,3-oxazolidin-2-one] | 1.2 | 11 | 4.3
9 | Cc1cc(Oc2c(F)cccc2F)ncc1-n1ncc(C(=O)c2cc3cc(OC(F)F)c(N4CCCC4=O)cc3[nH]2)c1N [Example 4-21-008, 1-[2-[5-amino-1-[6-(2,6-difluorophenoxy)-4-methylpyridin-3-yl]pyrazole-4-carbonyl]-5-(difluoromethoxy)-1H-indol-6-yl]pyrrolidin-2-one] | 4.1 | 25 | 6.6
10 | Cc1cc(Oc2c(F)cccc2F)ncc1-n1ncc(C(=O)c2cc3cc(OC(F)F)c(N4CCOC4=O)cc3[nH]2)c1N [Example 4-21-009, 3-[2-[5-amino-1-[6-(2,6-difluorophenoxy)-4-methylpyridin-3-yl]pyrazole-4-carbonyl]-5-(difluoromethoxy)-1H-indol-6-yl]-1,3-oxazolidin-2-one] | 0.83 | 9.9 | 2.7

Second part, the compound after the results:

Row | IC50 (human Yes1 enzyme) [nM] | IC50 (human Src enzyme) [nM] | IC50 (human Lck enzyme) [nM] | Structure (SMILES)
11 | 5.9 | 29 | 15 | Cc1cc(Oc2ccccc2F)ccc1-n1ncc(C(=O)c2cc3cc(OC(F)F)c(C4CCN(C(=O)CN)CC4)cc3[nH]2)c1N [Example 4-18-002, 2-amino-1-[4-[2-[5-amino-1-[4-(2-fluorophenoxy)-2-methylphenyl]pyrazole-4-carbonyl]-5-(difluoromethoxy)-1H-indol-6-yl]piperidin-1-yl]ethanone]
12 | 1.6 | 16 | 9.2 | Cc1cc(Oc2ccccc2F)ccc1-n1ncc(C(=O)c2cc3cc(OCC(F)F)c(C4CCN(C(=O)CN)CC4)cc3[nH]2)c1N [Example 4-18-004, 2-amino-1-[4-[2-[5-amino-1-[4-(2-fluorophenoxy)-2-methylphenyl]pyrazole-4-carbonyl]-5-(2,2-difluoroethoxy)-1H-indol-6-yl]piperidin-1-yl]ethanone]
13 | 0.64 | 31 | 3.5 | Cc1cc(Oc2ccccc2F)ccc1-n1ncc(C(=O)c2cc3cc(F)c(NS(N)(=O)=O)cc3[nH]2)c1N [Example 4-20-001, 2-[5-amino-1-[4-(2-fluorophenoxy)-2-methylphenyl]pyrazole-4-carbonyl]-5-fluoro-6-(sulfamoylamino)-1H-indole]
14 | 1 | 50 | 8.3 | Cc1cc(Oc2cccc(F)c2F)ccc1-n1ncc(C(=O)c2cc3cc(F)c(NS(N)(=O)=O)cc3[nH]2)c1N [Example 4-20-002, 2-[5-amino-1-[4-(2,3-difluorophenoxy)-2-methylphenyl]pyrazole-4-carbonyl]-5-fluoro-6-(sulfamoylamino)-1H-indole]
15 | 0.89 | 5.4 | 2.8 | Cc1cc(Oc2ccccc2F)ccc1-n1ncc(C(=O)c2cc3cc(OCC(F)F)c(N4CCCC4=O)cc3[nH]2)c1N [Example 4-21-002, 1-[2-[5-amino-1-[4-(2-fluorophenoxy)-2-methylphenyl]pyrazole-4-carbonyl]-5-(2,2-difluoroethoxy)-1H-indol-6-yl]pyrrolidin-2-one]
16 | 0.53 | 2.4 | 1.5 | Cc1cc(Oc2ccccc2F)ccc1-n1ncc(C(=O)c2cc3cc(OCC(F)F)c(N4CCOC4=O)cc3[nH]2)c1N [Example 4-21-003, 3-[2-[5-amino-1-[4-(2-fluorophenoxy)-2-methylphenyl]pyrazole-4-carbonyl]-5-(2,2-difluoroethoxy)-1H-indol-6-yl]-1,3-oxazolidin-2-one]
17 | 1.6 | 17 | 5.5 | Cc1cc(Oc2ccccc2F)ccc1-n1ncc(C(=O)c2cc3cc(OC(F)F)c(N4CCCC4=O)cc3[nH]2)c1N [Example 4-21-006, 1-[2-[5-amino-1-[4-(2-fluorophenoxy)-2-methylphenyl]pyrazole-4-carbonyl]-5-(difluoromethoxy)-1H-indol-6-yl]pyrrolidin-2-one]
18 | 0.51 | 8.7 | 6.5 | Cc1cc(Oc2ccccc2F)ccc1-n1ncc(C(=O)c2cc3cc(OC(F)F)c(N4CCOC4=O)cc3[nH]2)c1N [Example 4-21-007, 3-[2-[5-amino-1-[4-(2-fluorophenoxy)-2-methylphenyl]pyrazole-4-carbonyl]-5-(difluoromethoxy)-1H-indol-6-yl]-1,3-oxazolidin-2-one]
19 | 2.6 | 90 | 34 | Cc1cc(Oc2ccccc2F)ccc1-n1ncc(C(=O)c2cc3cc(OC(F)F)c(NS(=O)(=O)N4CCOCC4)cc3[nH]2)c1N [Example 4-22-001, N-(2-(5-amino-1-(4-(2-fluorophenoxy)-2-methylphenyl)-1H-pyrazole-4-carbonyl)-5-(difluoromethoxy)-1H-indol-6-yl)morpholine-4-sulfonamide]
20 | 3 | 240 | 68 | Cc1cc(Oc2ccccc2F)ncc1-n1ncc(C(=O)c2cc3cc(OC(F)F)c(NS(=O)(=O)N4CCOCC4)cc3[nH]2)c1N [Example 4-22-002, N-[2-[5-amino-1-[6-(2-fluorophenoxy)-4-methylpyridin-3-yl]pyrazole-4-carbonyl]-5-(difluoromethoxy)-1H-indol-6-yl]morpholine-4-sulfonamide]
21 | 2.9 | 170 | 62 | Cc1cc(Oc2c(F)cccc2F)ncc1-n1ncc(C(=O)c2cc3cc(OC(F)F)c(NS(=O)(=O)N4CCOCC4)cc3[nH]2)c1N [Example 4-22-003, N-[2-[5-amino-1-[6-(2,6-difluorophenoxy)-4-methylpyridin-3-yl]pyrazole-4-carbonyl]-5-(difluoromethoxy)-1H-indol-6-yl]morpholine-4-sulfonamide]
22 | 1.2 | 360 | 78 | Cc1cc(Oc2ccccc2F)ncc1-n1ncc(C(=O)c2cc3cc(N4CCOCC4)c(NS(=O)(=O)N4CCOCC4)cc3[nH]2)c1N [Example 4-22-004, N-[2-[5-amino-1-[6-(2-fluorophenoxy)-4-methylpyridin-3-yl]pyrazole-4-carbonyl]-5-morpholin-4-yl-1H-indol-6-yl]morpholine-4-sulfonamide]
